Measured values from PubChem BioAssay (NCI).
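Five concentrations, 48 hours, 96-well plates. Definition used: TGI = concentration required for complete inhibition of growth.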

Legend:
Assay in all cases: growth of human tumour cells (NCI), 48 h
[1] = tested on: SK-MEL-2 melanoma
[2] = tested on: IGROV1 ovarian
[3] = tested on: OVCAR-5 ovarian
[4] = tested on: SNB-19 CNS
[5] = tested on: HCT-15 colon
[6] = tested on: NCI-H522 lung
[7] = tested on: HOP-92 NSCLC
[8] = tested on: RPMI-8226 leukemia
[9] = tested on: RXF 393 renal
[10] = tested on: SR leukemia
[11] = tested on: MALME-3M melanoma
[12] = tested on: OVCAR-4 ovarian
[13] = tested on: CAKI-1 renal
[14] = tested on: SF-268 CNS
[15] = tested on: MOLT-4 leukemia
[16] = tested on: SF-539 CNS
[17] = tested on: DU-145 prostate
[18] = tested on: UACC-257 melanoma
[19] = tested on: PC-3 prostate

Structure (SMILES) | TGI [1] [µM] | TGI [2] [µM] | TGI [3] [µM] | TGI [4] [µM] | TGI [5] [µM] | TGI [6] [µM] | TGI [7] [µM] | TGI [8] [µM] | TGI [9] [µM] | TGI [10] [µM] | TGI [11] [µM] | TGI [12] [µM] | TGI [13] [µM] | TGI [14] [µM] | TGI [15] [µM] | TGI [16] [µM] | TGI [17] [µM] | TGI [18] [µM] | TGI [19] [µM]
Cn1cc2ccccc2c1-c1nc(F)nc(F)n1 | > 100 | > 100 | > 100 | > 100 | > 100 | > 100 | > 100 | 90.5 | > 100 | > 100 | > 100 | > 100 | > 100 | > 100 | > 100 | > 100 | – | – | –
COc1ccc2[nH]cc(CCNC(=O)[C@H](Cc3ccccc3)NC(=O)[C@@H](NCC(F)(F)F)C(C)C)c2c1 | 38.3 | 51.3 | 34.8 | 84.8 | 42.2 | 32.1 | 28.4 | 23.8 | 36.1 | > 100 | 51.9 | 32.3 | – | – | 69.5 | 34.3 | 37.7 | 37.8 | 40.9
O=C(CSc1nnc(-c2ccc(N=Cc3ccc(Cl)cc3)cc2)o1)Nc1ccccc1[N+](=O)[O-] | > 100 | – | – | > 100 | > 100 | > 100 | – | > 100 | > 100 | > 100 | > 100 | > 100 | – | > 100 | > 100 | – | – | > 100 | –
CCc1n[nH]c(=O)n1/N=C/c1c(O)ccc2ccccc12 | > 100 | > 100 | > 100 | > 100 | > 100 | > 100 | > 100 | > 100 | > 100 | > 100 | – | > 100 | – | > 100 | > 100 | > 100 | > 100 | > 100 | > 100
O=C1/C(=C/c2cccc(Br)c2)CCc2ccccc21 | 25.8 | 24.7 | 28.3 | 27.9 | 24.1 | 24.3 | 28.2 | – | – | 18.4 | 26 | 26.7 | 30.3 | 21.8 | 42.1 | 31.4 | 30.9 | 28.6 | 27.7
C=Cc1ccc(C)[n+](C[Si](C)(C)O[Si](C)(C)C)c1 | > 100 | > 100 | > 100 | > 100 | > 100 | > 100 | – | > 100 | – | > 100 | > 100 | > 100 | > 100 | > 100 | > 100 | > 100 | – | > 100 | –
O=C1/C(=C/c2cccc(F)c2)CCCc2ccccc21 | 29.8 | 24.6 | 28.3 | 29.4 | 29.3 | 25.5 | 29.2 | 53.7 | – | 32.8 | 23.8 | 31.8 | 31.6 | 28.1 | 43.6 | 31.2 | 30.6 | 30.6 | 29.1
COc1ccc2c3c1O[C@]1(C)C34CCN(C)C(C2)C42C=C[C@@]1(OC)c1c(O)ccc(O)c12 | > 100 | > 100 | > 100 | > 100 | – | > 100 | > 100 | > 100 | > 100 | – | > 100 | – | – | > 100 | > 100 | > 100 | – | > 100 | –
NC1=C(NC(=O)Cc2ccc(F)cc2)C(=O)c2ccccc2C1=O | > 100 | 59.4 | > 100 | 59 | > 100 | > 70.1 | 64.3 | > 100 | 57 | > 100 | > 100 | > 100 | > 100 | > 100 | > 100 | > 100 | – | > 100 | –
O=C1NC2ON=C(c3ccccc3)C2C2ON=C(c3ccccc3)N12 (stereo not given) | – | > 100 | > 100 | > 100 | > 100 | > 100 | – | – | > 100 | – | > 100 | – | > 100 | > 100 | – | > 100 | > 100 | > 100 | > 100
CNS(=O)(=O)NN(C)S(=O)(=O)c1ccccc1 | > 100 | > 100 | – | > 100 | > 100 | > 100 | – | > 100 | > 100 | > 100 | > 100 | > 100 | > 100 | > 100 | > 100 | > 100 | – | > 100 | –
NC(=O)N/N=C(\CC1OC(=O)c2ccccc21)c1ccco1 (stereo not given) | > 100 | > 100 | > 100 | > 100 | > 100 | > 100 | > 100 | – | > 100 | – | > 100 | > 100 | > 100 | > 100 | > 100 | > 100 | – | > 100 | –
CCc1c2c([nH]c(=S)c1C#N)CCC2 | > 100 | > 100 | > 100 | > 100 | > 100 | > 100 | > 100 | > 100 | > 100 | > 100 | > 100 | > 100 | > 100 | > 100 | > 100 | – | > 100 | > 100 | > 100
C[C@]12CCC(=O)C=C1CC[C@@H]1[C@@H]2CC[C@]2(C)C(=O)NC(=O)C[C@@H]12 | > 100 | > 100 | > 100 | > 100 | > 100 | > 100 | > 100 | > 100 | > 100 | > 100 | > 100 | > 100 | > 100 | > 100 | > 100 | > 100 | – | > 100 | –
COc1cc2c(oc(=O)c3c4oc([Si](C)(C)C)cc4cc(OC)c23)c2cccc(OCc3ccccc3)c12 | > 100 | > 100 | > 100 | 64.1 | > 100 | > 100 | > 67.2 | > 87 | > 48.2 | > 100 | > 71.5 | > 88.5 | 41.2 | > 70.7 | > 100 | 56.5 | – | > 100 | –
COC(=O)N/N=C(\Cc1ccccc1)CN(C)C | > 100 | > 100 | > 100 | – | – | > 100 | > 100 | > 100 | > 100 | – | > 100 | – | – | > 100 | > 100 | > 100 | – | > 100 | –
CCCCOC(=O)C1C2CCC(O2)C1C(=O)OCCCC (stereo not given) | > 100 | > 100 | > 100 | > 100 | > 100 | > 100 | > 100 | > 68.5 | > 86.8 | – | > 100 | > 100 | > 100 | > 100 | > 100 | > 100 | – | > 92.2 | –
CN(C)Nc1cc(=O)[nH]c(=O)[nH]1 | – | > 100 | > 100 | > 100 | > 100 | – | > 100 | > 100 | > 100 | > 100 | > 100 | > 100 | – | > 100 | > 100 | > 100 | > 100 | > 100 | > 100
C/C(CC(=O)Nc1ccc([N+](=O)[O-])cc1)=N\NC(N)=O | > 100 | > 100 | > 100 | > 100 | > 100 | > 100 | > 100 | > 69.5 | > 100 | 45.8 | > 100 | > 100 | > 100 | > 100 | > 100 | > 100 | – | > 100 | –
O=c1[nH]c2cc([N+](=O)[O-])ccc2nc1/C(=N/Nc1ccccc1)C(O)c1ccccc1Cl (stereo not given) | > 100 | > 100 | > 100 | > 100 | 36.3 | > 100 | > 100 | > 100 | > 100 | – | > 100 | > 100 | – | > 100 | > 100 | > 100 | – | > 100 | –
O=c1[nH]c2cc(Cl)ccc2nc1/C(=N\O)C(O)c1cccc([N+](=O)[O-])c1 (stereo not given) | – | > 100 | > 100 | > 100 | – | > 100 | > 100 | > 100 | > 100 | – | > 100 | > 100 | – | – | > 100 | > 100 | – | > 100 | –
CC(C)OC(=O)c1ccc(NCc2cc(O)ccc2O)cc1Cl | > 55 | 14.7 | 26.6 | > 22.2 | 3.95 | – | 18 | – | 13.1 | 8.6 | – | 21.9 | 3.02 | > 66.4 | 8.97 | 6.07 | 26.4 | 37.1 | 12.5
CC(=O)OC1COC(n2c(O)c(N=NC(N)=S)c3cc(Br)ccc32)C(OC(C)=O)C1OC(C)=O (stereo not given) | > 100 | > 100 | > 100 | > 100 | > 100 | > 100 | > 100 | > 100 | > 100 | > 100 | > 100 | > 100 | > 100 | > 100 | > 100 | > 100 | – | > 100 | –
CCOC(=O)NC(=O)c1cn(CCOC(=O)CCCCCCCCC(=O)OCCn2cc(C(=O)NC(=O)OCC)c(=O)[nH]c2=O)c(=O)[nH]c1=O | > 100 | > 100 | > 100 | > 100 | > 100 | – | > 100 | > 100 | > 100 | > 100 | > 100 | > 100 | > 100 | > 100 | > 100 | > 100 | – | > 100 | –
C/C(=N\NS(=O)(=O)c1ccc(C)cc1)C(CN1CCCCC1)C(c1ccccc1)c1c(O)c2ccccc2oc1=O (stereo not given) | > 100 | > 100 | > 100 | > 100 | > 100 | > 100 | > 100 | > 100 | > 100 | > 100 | > 100 | > 100 | > 100 | > 100 | – | > 100 | – | > 100 | –
C[N+](C)(C)CC(=O)N/N=C/c1oc(-c2c(O)ccc3ccccc23)c(-c2c(O)ccc3ccccc23)c1[N+](=O)[O-] | 33.4 | 44.2 | 60.1 | > 100 | – | 31.1 | 50.9 | > 100 | 26.8 | 58.3 | 28.2 | 80.8 | 75.5 | 47.3 | 62.3 | 29.4 | 47.6 | 51.9 | –
CS(=O)(=O)c1nc(-c2cc3c(c(S(C)(=O)=O)n2)CCC3)cc2c1CCCCC2 | 63.1 | 63.7 | > 100 | > 100 | > 100 | 58.9 | – | > 100 | 39.3 | – | 99.6 | > 100 | > 100 | 92.2 | > 100 | – | > 100 | > 100 | > 100
O=C(c1cccs1)N(C(=S)N1CCN(c2ccccn2)CC1)c1ccccc1 | > 100 | > 100 | > 100 | > 100 | > 100 | > 100 | > 100 | > 100 | > 100 | > 100 | > 100 | > 100 | > 100 | > 100 | > 100 | > 100 | – | > 100 | –
